Experiments:
[1] = tested on: glioblastoma SNB-75 cells; assay: Cell cycle analysis, PI flow cytometry; type: cell-based, human; conditions: SNB-75, after 24 h at IC50 concentration
Protocol: (§1) Melanoma MDA -MB-435 and glioblastoma SNB-75 cells were treated with the quinazolinone 5c for 24 h (at its IC50 concentration), and then cells were washed twice with ice - cold phosphate buffered saline (PBS). Consequently, the treated cells were collected by centrifugation, fixed in ice -cold 70% (v/v) ethanol, washed with PBS, re -suspended with 100 μg/mL RNase, stained with 40 μg/mL propidium iodide (PI), and analyzed by flow cytometry using FACS Calibur (Becton Dickinson, BD, Franklin Lakes, NJ, USA). The cell cycle distributions were calculated using Cell Quest software 5.1 (Becton Dickinson). […]

[2] = tested on: glioblastoma cell line SNB-75; assay: Detection of IC50, MTT assay; type: cell-based; conditions: Homo sapiens, read-out: IC50 (µM)±SD, 50% inhibition of cell viability, Glioblastoma SNB-75, 48 h
Protocol: 2. Detection of IC50 against MDA-MB-435, SNB-75 cell lines and normal cell line WI -38.
Antiproliferative activities of 5c in melanoma cell line MDA-MB-435, glioblastoma cell line SNB-75 and normal cell line WI -38 and that of 8a in melanoma cell line MDA-MB-435 and normal cell line WI-38 were measured spectrophotometrically using in vitro MTT based toxicology assay kit (catalog no. M -5655, M-8910) (Sigma Aldrich), according to the manufacturer’s protocol. The three examined cell lin es were obtained from American Type Culture Collection (ATCC). Briefly, cells were platted (cells density 1.2 – 1.8 × 10,000 cells/well) in a volume of 100 µl complete growth medium + 100 μl of the tested compound per well in a 96-well […]
salt solution without phenol red and serum.

[3] = tested on: melanoma MDA-MB-435 cells; assay: Apoptosis determination, Annexin V-FITC/PI; type: cell-based, human; conditions: MDA-MB-435, 24 h at IC50 concentration
Protocol: The apoptotic activity of quinazolinone 5c in melanoma MDA-MB-435 and glioblastoma SNB-75 cell lines was further studied using Annexin V-FITC assay. […]
4. Apoptosis determination
Annexin V fluorescein isothiocyanate (FITC)/PI apoptosis detection kit (BD Biosciences) was used according to the manufacturer’s instructions to measure the apoptotic activity of compound 5c. Melanoma MDA -MB-435 and glioblastoma SNB -75 cells were cultured to a monolayer then treated with the quinazolinone 5c at its IC50 concentration. The cells then were collected by trypsinisation and 0.5×10^6 cells were washed twice with PBS and stained with 5 µL Annexin V-FITC and 5 µL PI in 1Xbinding buffe r for 15 min. at room temperature in the dark.
Analyses were performed using FACS Calibur flow cytometer (BD Biosciences, San Jose, CA).

[4] = tested on: melanoma MDA-MB-435 cells; assay: Cell cycle analysis, PI flow cytometry; type: cell-based, human; conditions: MDA-MB-435, after 24 h at IC50 concentration
Protocol: 10% of the culture medium volume. Cultures were returned to incubator for 2–4 h. After the incubation period, cultures were removed from incubator and the resulting formazan crystals were dissolved by adding an amount of MTT solubilization solution [M-8910] equal to the original culture medium volume. Dissolution is enhanced by gentle mixing in a gyratory shaker. Then the absorbance is measured spectrophotometrically at a wavelength of 450 nm. The absorbance of multiwell plates was measured at 690 nm and subtracted from the 450 nm measurement. IC50 values (concentration of sample causing 50% loss of cell proliferation of the vehicle control) were calculated using non-linear regression curve fitting of the dose response plots on GraphPad Prism 7.0 software. Data presented are the results of at least three independent experiments. The results of these studies are presented as mean IC50 (μM) ± standard deviation (SD).
as §1

Q: `O=c1c2ccccc2nc(COc2ccccc2)n1NS(=O)(=O)c1ccc(Cl)cc1` [Compound 5c, 4-chloro-N-(4-oxo-2-(phenoxymethyl)quinazolin-3(4H)-yl)benzenesulfonamide] was tested. Which “%G0-G1” value [1] did it give?
A: The value was 39.53%.

Q: What about the “%G2/M” value [1] of the same compound?
A: Its value is 31.78%.

Q: What about the “%Pre-G1” value [1] of the same compound?
A: The value was 44.22%.

Q: What about the “%S” value [1] of the same compound?
A: The value was 28.69%.

Q: What about the “Comment (cell cycle)” value [1] of the same compound?
A: The value was “Pre G1 apoptosis and cell growth arrest at G2/M”.

Q: And the IC50 [2]?
A: Its IC50 is 8.62 ± 0.13 µM.

Q: What about the “% Necrosis” value [3] of the same compound?
A: Its value is 13.47%.

Q: And the “%Apoptosis Early” value [3]?
A: Its value is 4.53%.

Q: And the “%Apoptosis Late” value [3]?
A: Its value is 10.65%.

Q: And the “%Apoptosis Total” value [3]?
A: Its value is 28.65%.

Q: What about the “%G0-G1” value [4] of the same compound?
A: Its value is 55.29%.

Q: And the “%G2/M” value [4]?
A: The value was 3.74%.

Q: And the “%Pre-G1” value [4]?
A: Its value is 28.65%.

Q: What about the “%S” value [4] of the same compound?
A: The value was 40.97%.

Q: And the “Comment (cell cycle)” value [4]?
A: The value was “Pre G1 apoptosis and cell growth arrest at S”.
